Results on two compounds are retold here after US20140113888A1, “Novel Combination of Therapeutic Agents” (Glaxo Group Limited, priority 2011, published 2014).

Bounds are passed on as bounds.

The nature of data set [1]: 14-day once-daily study in subjects with COPD. In kind it is in vivo, human. The note with it: 14 days. An excerpt:
In addition, this study confirmed that umeclidinium bromide has a once-daily profile.

The next data set deals with muscarinic receptor. In words: studies in animal models and in humans: muscarinic receptor antagonism.
Data set [2] can be described thus: 28 day once-daily dry powder inhaler study in subjects with COPD. The class given is in vivo, human. The note with it: 125, 250 and 500 mcg once-daily, 28 days. An excerpt: A further study evaluated the efficacy and safety of three doses (125 mcg, 250 mcg and 500 mcg) of umeclidinium bromide administered once-daily via a dry powder inhaler over a 28 day period in subjects with COPD.

Data set [3] in a line: duration of action in vivo, administered directly to the lungs in pre-clinical models.
The target in another data set is human M3 receptor (Homo sapiens, UniProt P20309). The data set is described as follows: reversibility at the human M3 receptor in vitro. In kind it is binding.
A short description of data set [4]: clinical pharmacology studies, single inhaled doses, plethysmography (sGaw, Raw) and spirometry (FEV1). The note with it: healthy volunteers and COPD patients. In kind it is in vivo, human. Here is the method: Several clinical pharmacology studies have been conducted using umeclidinium bromide in both healthy volunteers and COPD patients to investigate the safety, tolerability, pharmacokinetics and pharmacodynamics of this compound. The bronchodilatory effects and duration of action of single inhaled doses of this compound as measured by plethysmography (sGaw, Raw) and spirometry (FEV1) were assessed in some of the above noted studies.

A short description of data set [5]: 8 week randomised, double-blind, placebo-controlled study in persistent uncontrolled asthma. In kind it is in vivo, human. The procedure: In one such study, the safety and efficacy of four doses of fluticasone furoate in subjects with persistent uncontrolled asthma were evaluated. In this study, which was a randomised, double-blind, placebo-controlled, parallel group study, 598 patients received one of six treatments: fluticasone furoate (25, 50, 100 or 200 mcg) once daily, fluticasone propionate 100 mcg twice daily or placebo for 8 weeks. The primary endpoint was change from baseline in trough (pre-dose) forced expiratory volume in 1 second (FEV1) at Week 8. […] This study supports the use of fluticasone furoate (100 or 200 mcg once-daily) for the treatment of persistant uncontrolled asthma.

The nature of data set [6]: clinical studies of fluticasone furoate (general statement). In kind it is in vivo, human.

human M3 receptor, sequence (P20309 whole entry): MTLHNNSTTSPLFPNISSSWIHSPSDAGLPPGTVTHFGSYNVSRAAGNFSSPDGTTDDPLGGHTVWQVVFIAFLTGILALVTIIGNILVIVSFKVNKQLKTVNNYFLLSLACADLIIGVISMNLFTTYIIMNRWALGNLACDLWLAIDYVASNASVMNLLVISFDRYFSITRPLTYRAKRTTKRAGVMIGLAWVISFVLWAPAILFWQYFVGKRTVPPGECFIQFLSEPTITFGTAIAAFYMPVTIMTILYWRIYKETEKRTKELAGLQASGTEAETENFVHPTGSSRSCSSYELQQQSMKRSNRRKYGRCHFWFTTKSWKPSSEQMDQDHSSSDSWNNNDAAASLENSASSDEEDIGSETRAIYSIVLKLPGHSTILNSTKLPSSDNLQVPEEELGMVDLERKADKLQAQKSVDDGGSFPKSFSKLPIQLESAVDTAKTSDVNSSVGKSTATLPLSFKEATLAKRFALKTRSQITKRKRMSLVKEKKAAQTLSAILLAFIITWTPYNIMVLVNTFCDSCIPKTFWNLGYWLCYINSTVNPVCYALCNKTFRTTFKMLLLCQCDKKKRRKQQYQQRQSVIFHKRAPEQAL

For `OC(c1ccccc1)(c1ccccc1)C12CC[N+](CCOCc3ccccc3)(CC1)CC2.[Br-]` [umeclidinium bromide, 4-[hydroxy(diphenyl)methyl]-1-{2-[(phenylmethyl)oxy]ethyl}-1-azoniabicyclo[2.2.2]octane bromide], the “pulmonary function compared to placebo” value in data set [1] (62.5, 125, 250, 500 and 1000 mcg once-daily) is listed as “statistically significant improvements”. Also, the “trough FEV1 versus open label tiotropium active control (18 mcg once-daily)” value in data set [1] (all once-daily doses 62.5-1000 mcg) is reported as “numerically greater improvement”. In addition, in the data set on muscarinic receptor, the “muscarinic receptor antagonist profile” value is listed as “long acting high-affinity pan-active muscarinic receptor antagonist”. Also, in data set [2], the bronchodilation result is reported as “significant bronchodilation over twenty four hours” and the safety entry is “safe”. In addition, the “duration of action in vivo” value in data set [3] was “long duration of action”. Besides, on human M3 receptor, the “reversibility at the human M3 receptor” value was “slow reversibility”. Moreover, in data set [4], the “bronchodilatory effects (sGaw, Raw, FEV1)” value is recorded as “clinically relevant bronchodilation” and the duration of action came out at 24 h.

Turning to `C[C@@H]1C[C@H]2[C@@H]3C[C@H](F)C4=CC(=O)C=C[C@]4(C)[C@@]3(F)[C@@H](O)C[C@]2(C)[C@@]1(OC(=O)c1ccco1)C(=O)SCF` [fluticasone furoate, 6α,9α-difluoro-17α-[(2-furanylcarbonyl)oxy]-11β-hydroxy-16α-methyl-3-oxo-androsta-1,4-diene-17β-carbothioic acid S-fluoromethyl ester], the “change from baseline in trough FEV1 at Week 8 relative to placebo” value in data set [5] (50-200 mcg once daily, p<0.05) is reported as “significantly greater increases”. Also, the “increase in trough FEV1 at Week 8” value in data set [5] (100 mcg once daily) and in data set [5] (200 mcg once daily) was above 200 mL each time. Besides, the tolerability entry in data set [6] (clinical studies) is reported as “well-tolerated”. The activity after dosing result in data set [6] (inhaled) is reported as “still active 24 hours after dosing”.
